{"source": "patent US11306054B2", "about": "“Propanediol monoacetate mononitrate” (DSM IP ASSETS B.V., priority 2017, dated 2022)", "system": "S. epidermidis, C. xerosis, M. furfur, P. Acnes", "test": "Antimicrobial efficacy, challenge test, overall conclusion on the strains of table 1", "assay_type": "cell-based", "conditions": "conclusion from table 1; almost comparable to Phenonip", "description": "The antimicrobial efficacy of propanediol monoacetate mononitrate (PDMAMN) is assessed in analogy to the regulatory challenge test method (NF EN ISO11930). The following test solutions were tested • 1. Inv 1: 400 mg PDMAMN in 1 ml PEG 400 were diluted with 40 mL physiological serum (0.85% NaCl) containing 7% Ethanol (˜1% of PDMAMN) • 2. Inv 2: 200 mg PDMAMN in 1 ml PEG 400 were diluted in 40 mL physiological serum (0.85% NaCl) containing 7% Ethanol (˜0.5% of PDMAMN) • 3. Inv 3: 40 mg 3-PDMAMN in 1 ml PEG 400 were diluted in 40 mL physiological serum (0.85% NaCl) containing 7% Ethanol (˜0.1% of PDMAMN) • 4. Ref 1: Physiological serum (0.85% NaCl) • 5. Ref 2: 1 mL PEG 400+40 mL physiological serum (0.85% NaCl) containing 7% Ethanol • 6. Control: 0.5% Phenonip in physiological serum (0.85% NaCl)\nAll test solutions were deposed in 96-deep well plates (1.6 ml/well). The wells were contaminated with the respective bacterial or the fungal strains as outlined in table 1*10^5 to 1*10^6 cfu/ml for the bacteria and 1*10^4 to 1*10^5 cfu/ml for the fungi to obtain the initial contamination as outlined in table 1, Zero. After the contamination, each well was thoroughly mixed to ensure a homogeneous distribution of the microorganism. Then each plate was incubated at 22° C. for 24 h. The counting of the (remaining) population was carried out 24 h after contamination.", "data": [{"compound": "CC(=O)OCCCO[N+](=O)[O-]", "note": "[propanediol monoacetate mononitrate, 1,3-propanediol monoacetate mononitrate]", "values": [{"measurement": "antimicrobial activity", "value": "excellent antimicrobial activity"}]}]}
